# Results taken from patent US5407918A, “16-membered macrolide derivatives and process for producing the same” (Meiji Seika Kaisha, Ltd., priority 1992, dated 1995).
# What was measured:
# Assay type in all cases: cell-based
# B. catarrhalis W-0500 = test: MIC, agar plate dilution method; conditions: Moraxella catarrhalis, W0500, 37° C., 20 hours, read-out: Antimicrobial activity (MIC)
# Experimental: (§1) Antimicrobial activities of the compounds of the present invention were determined by measuring minimum inhibitory concentration (MIC). Minimum inhibitory concentration was determined by the agar plate dilution method in the following manner.
# (§2) Test strains were subjected to seed culture using Sensitivity test broth (STB, Nissui Pharmaceutical) except that the strains belonging to the genus Streptococcus, Branhamella and Haemophilus were cultured on blood agar plate. A 5 μl portion of cell suspension of the test strains having about 10^6 CFU/ml was inoculated into Sensitivity disk agar (SDA, Nissui Pharmaceutical) supplemented with 5% horse blood and incubated at 37° C. for 20 hours. Then, MIC was measured. For comparison, MDM and leucomycin A7 (LM-A7) was also tested.
# B. catarrhalis W-0506 = test: MIC, agar plate dilution method; conditions: Moraxella catarrhalis, W0506, 37° C., 20 hours, read-out: Antimicrobial activity (MIC)
# Experimental: as §1, §2
# E. coli NIHJ JC-2 = test: MIC, agar plate dilution method; conditions: Escherichia coli, NIHJJC2; E. coli NIHJ JC-2; 37° C., 20 hours; read-out: Antimicrobial activity (MIC)
# Experimental: as §1, §2
# E. faecalis W-73 = test: MIC, agar plate dilution method; conditions: Enterococcus faecalis, W73; E. faecalis W-73; 37° C., 20 hours; read-out: Antimicrobial activity (MIC)
# Experimental: as §1, §2
# H. influenzae 9334 = test: MIC, agar plate dilution method; conditions: Haemophilus influenzae; H. influenzae 9334; 37° C., 20 hours; read-out: Antimicrobial activity (MIC)
# Experimental: as §1, §2
# H. influenzae Type b = test: MIC, agar plate dilution method; conditions: Haemophilus influenzae; H. influenzae Type b; 37° C., 20 hours; read-out: Antimicrobial activity (MIC)
# Experimental: as §1, §2
# K. pneumoniae PC1602 = test: MIC, agar plate dilution method; conditions: Klebsiella pneumoniae, 37° C., 20 hours, read-out: Antimicrobial activity (MIC)
# Experimental: as §1, §2
# M. luteus ATCC9341 = test: MIC, agar plate dilution method; conditions: Micrococcus luteus; M. luteus ATCC9341; 37° C., 20 hours; read-out: Antimicrobial activity (MIC)
# Experimental: as §1, §2
# S. Pneumoniae Type 1 = test: MIC, agar plate dilution method; conditions: Streptococcus pneumoniae; S. Pneumoniae Type 1; 37° C., 20 hours; read-out: Antimicrobial activity (MIC)
# Experimental: as §1, §2
# S. Pyogenes Cook = test: MIC, agar plate dilution method; conditions: Streptococcus pyogenes, 37° C., 20 hours, read-out: Antimicrobial activity (MIC)
# Experimental: as §1, §2
# S. aureus 209P JC-1 = test: MIC, agar plate dilution method; conditions: Staphylococcus aureus; S. aureus 209P JC-1; 37° C., 20 hours; read-out: Antimicrobial activity (MIC)
# Experimental: as §1, §2
# S. aureus M126 = test: MIC, agar plate dilution method; conditions: Staphylococcus aureus; S. aureus M126; 37° C., 20 hours; read-out: Antimicrobial activity (MIC)
# Experimental: as §1, §2
# S. aureus M133 = test: MIC, agar plate dilution method; conditions: Staphylococcus aureus, 37° C., 20 hours, read-out: Antimicrobial activity (MIC)
# Experimental: as §1, §2
# S. aureus MS15009/pMS98 = test: MIC, agar plate dilution method; conditions: Staphylococcus aureus, MS15009/PMS98, 20 h, read-out: Antimicrobial activity (MIC)
# Experimental: as §1, §2
# S. aureus MS15009/pMS99 = test: MIC, agar plate dilution method; conditions: Staphylococcus aureus, MS15009/PMS99, 20 h, read-out: Antimicrobial activity (MIC)
# Experimental: as §1, §2
# S. aureus MS15026 = test: MIC, agar plate dilution method; conditions: Staphylococcus aureus, 37° C., 20 hours, read-out: Antimicrobial activity (MIC)
# Experimental: as §1, §2
# S. aureus MS15027 = test: MIC, agar plate dilution method; conditions: Staphylococcus aureus, 37° C., 20 hours, read-out: Antimicrobial activity (MIC)
# Experimental: as §1, §2
# S. epidermidis ATCC14990 = test: MIC, agar plate dilution method; conditions: Staphylococcus epidermidis, 37° C., 20 hours, read-out: Antimicrobial activity (MIC)
# Experimental: as §1, §2
# S. pneumoniae IP692 = test: MIC, agar plate dilution method; conditions: Streptococcus pneumoniae; S. pneumoniae IP692; 37° C., 20 hours; read-out: Antimicrobial activity (MIC)
# Experimental: as §1, §2
# Gram-positive bacteria = test: antimicrobial activity in vitro (summary in words); conditions: from Tables 2 and 3
# Experimental: as §1, §2
# test strains = test: antimicrobial activity in vitro, comparison in words; conditions: for antimicrobial activity in vitro compared with MOM: data are not shown; for antimicrobial activity compared with LM-A7: except on Haemophilus influenzae, Tables 2 and 3
# Experimental: as §1, §2
Structure (SMILES),MIC (B. catarrhalis W-0500) [mg/L],MIC (B. catarrhalis W-0506) [mg/L],MIC (E. coli NIHJ JC-2) [mg/L],MIC (E. faecalis W-73) [mg/L],MIC (H. influenzae 9334) [mg/L],MIC (H. influenzae Type b) [mg/L],MIC (K. pneumoniae PC1602) [mg/L],MIC (M. luteus ATCC9341) [mg/L],MIC (S. Pneumoniae Type 1) [mg/L],MIC (S. Pyogenes Cook) [mg/L],MIC (S. aureus 209P JC-1) [mg/L],MIC (S. aureus M126) [mg/L],MIC (S. aureus M133) [mg/L],MIC (S. aureus MS15009/pMS98) [mg/L],MIC (S. aureus MS15009/pMS99) [mg/L],MIC (S. aureus MS15026) [mg/L],MIC (S. aureus MS15027) [mg/L],MIC (S. epidermidis ATCC14990) [mg/L],MIC (S. pneumoniae IP692) [mg/L],antimicrobial activity on Gram-positive bacteria (Gram-positive bacteria),other results
CO[C@@H]1[C@@H](O[C@@H]2O[C@H](C)[C@@H](O[C@H]3C[C@@](C)(OC)[C@@H](OCc4ccccc4)[C@H](C)O3)[C@H](N(C)C)[C@H]2O)[C@@H](CC=O)C[C@@H](C)[C@@H](O)/C=C/C=C/C[C@@H](C)OC(=O)C[C@H]1O [(16)],0.78,0.78,> 100,0.39,3.13,6.25,> 100,0.05,0.1,0.1,0.1,> 100,0.39,0.2,> 100,> 100,0.2,0.2,0.1,strong antimicrobial activity,antimicrobial activity in vitro compared with MOM (test strains): clearly much superior to MOM; antimicrobial activity compared with LM-A7 (test strains): comparable or superior
CCCCCO[C@H]1[C@H](C)O[C@@H](O[C@H]2[C@H](N(C)C)[C@@H](O)[C@H](O[C@H]3[C@@H](CC=O)C[C@@H](C)[C@@H](O)/C=C/C=C/C[C@@H](C)OC(=O)C[C@@H](O)[C@@H]3OC)O[C@@H]2C)C[C@@]1(C)OC [(11)],0.39,0.78,> 100,0.39,3.13,12.5,> 100,0.05,0.2,0.1,0.1,> 100,0.39,0.39,> 100,> 100,0.39,0.39,0.05,strong antimicrobial activity,antimicrobial activity in vitro compared with MOM (test strains): clearly much superior to MOM; antimicrobial activity compared with LM-A7 (test strains): comparable or superior
